A value given as a limit tells only on which side of the number the result lay.

Test [1] addresses constitutive proteasome β5c unit (Homo sapiens, UniProt P20618+P28074). The experiment in a line: Caliper-based proteasome enzymatic activity assay, β5c. To be noted: human recombinant constitutive proteasome 0.3 nM, FAM-peptide substrate 1 μM, 3 h at rt; read-out: β5c subunit IC50. The format is biochemical. In short, it runs like this: (§1)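 Recombinant human immunoproteasome or constitutive proteasome (0.3 nM) with 1 μM FAM-peptide in 20 mM Hepes pH 7.4, 0.015% SDS, 0.01% BSA; LMP7/β5c ran 3 h at rt and were stopped with 5 uM carfilzomib, LMP2 ran 2 h and was stopped with 6.7 uM ixazomib. Cleaved product quantified by microfluidic separation; IC50 from percent inhibition.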

Test [2] addresses immunoproteasome LMP7/B5i subunit (Homo sapiens, UniProt P20618+P28062). The experiment in a line: Caliper-based proteasome enzymatic activity assay, LMP7. The format is biochemical. The conditions noted are these: human recombinant immunoproteasome 0.3 nM, FAM-peptide substrate 1 μM, 3 h at rt. In short, it runs like this:
as §1

Turning to `C=CC(=O)N1C[C@@H](F)C[C@@H]1COC(=O)N[C@@H](Cc1ccccc1)B(O)O` [Example 100, ((R)-1-(((((2R,4S)-1-acryloyl-4-fluoropyrrolidin-2-yl)methoxy)carbonyl)amino)-2-phenylethyl)boronic acid], the 50% inhibitory concentration (IC50) (usually the concentration at which inhibition is half-maximal) stood at 0.53 µM in test [1] and 0.021 µM in test [2].
Take `C=CC(=O)N1CCS(=O)(=O)C[C@@H]1COC(=O)N[C@@H](Cc1coc2ccccc12)B(O)O` [Example 111]: the IC50 in test [1] came to 0.09 µM; in test [2] it was 0.0042 µM.
The like results for `CC(=O)N1CCN(C(C)(C)C=C(C#N)C(=O)N2CCC[C@@H]2COC(=O)N[C@@H](Cc2coc3ccccc23)B(O)O)CC1` [Example 53, ((R)-1-(((((R)-1-(4-(4-acetylpiperazin-1-yl)-2-cyano-4-methylpent-2-enoyl)pyrrolidin-2-yl)methoxy)carbonyl)amino)-2-(benzofuran-3-yl)ethyl)boronic acid] were, in that order, 0.205 µM and 0.0018 µM.
On to `CC(C)(C=C(C#N)C(=O)N1CCCC[C@@H]1COC(=O)N[C@@H](Cc1cccc2ccccc12)B(O)O)N1CCC(F)(F)C1` [Example 106, ((R)-1-(((((R)-1-(2-cyano-4-(3,3-difluoropyrrolidin-1-yl)-4-methylpent-2-enoyl)piperidin-2-yl)methoxy)carbonyl)amino)-2-(naphthalen-1-yl)ethyl)boronic acid], for which the IC50 in test [1] turned out to be 2.24 µM; in test [2], 0.0052 µM.
As to `CC(C)(C=C(C#N)C(=O)N1CCC[C@]1(C)COC(=O)N[C@@H](Cc1ccc(F)cc1)B(O)O)N1CCC(F)(F)C1` [Example 120, ((R)-1-(((((R)-1-(2-cyano-4-(3,3-difluoropyrrolidin-1-yl)-4-methylpent-2-enoyl)-2-methylpyrrolidin-2-yl)methoxy)carbonyl)amino)-2-(4-fluorophenyl)ethyl)boronic acid], the IC50 in test [1] is more than 5 µM; in test [2] it was 0.53 µM.
In the case of `CC(C)(C=C(C#N)C(=O)N1CCCC[C@@H]1COC(=O)N[C@@H](Cc1ccc(F)cc1)B(O)O)N1CCN(C2COC2)CC1` [Example 127, ((R)-1-(((((R)-1-(2-cyano-4-methyl-4-(4-(oxetan-3-yl)piperazin-1-yl)pent-2-enoyl)piperidin-2-yl)methoxy)carbonyl)amino)-2-(4-fluorophenyl)ethyl)boronic acid], the figures for the IC50 in test [1] and in test [2] were 0.9 µM and 0.005 µM, respectively.
The like results for `CC#CC(=O)N1C[C@@H]2C[C@@H]2[C@@H]1COC(=O)N[C@@H](Cc1coc2ccccc12)B(O)O` [Example 88, ((R)-2-(benzofuran-3-yl)-1-(((((1S,2R,5R)-3-(but-2-ynoyl)-3-azabicyclo[3.1.0]hexan-2-yl)methoxy)carbonyl)amino)ethyl)boronic acid] were, in that order, 0.263 µM and 0.0071 µM.
For `CC(C)(C=C(C#N)C(=O)N1CCCC[C@@H]1COC(=O)N[C@@H](Cc1ccccc1C#N)B(O)O)N1CCC(F)(F)C1` [Example 107, ((R)-1-(((((R)-1-(2-cyano-4-(3,3-difluoropyrrolidin-1-yl)-4-methylpent-2-enoyl)piperidin-2-yl)methoxy)carbonyl)amino)-2-(2-cyanophenyl)ethyl)boronic acid], the figures for the IC50 in test [1] and in test [2] were more than 5 µM and 0.111 µM, respectively.
As to `C=CC(=O)N1CCC(F)(F)C[C@@H]1COC(=O)N[C@@H](Cc1coc2ccccc12)B(O)O` [Example 112, ((R)-1-(((((R)-1-acryloyl-4,4-difluoropiperidin-2-yl)methoxy)carbonyl)amino)-2-(benzofuran-3-yl)ethyl)boronic acid], the IC50 in test [1] amounted to 0.095 µM; in test [2], 0.0025 µM.
Take `CC(C)(C)C=C(C#N)C(=O)N1C[C@@H]2C[C@@H]2[C@@H]1COC(=O)N[C@@H](Cc1coc2ccccc12)B(O)O` [Example 48, ((R)-2-(benzofuran-3-yl)-1-(((((1S,2R,5R)-3-(2-cyano-4,4-dimethylpent-2-enoyl)-3-azabicyclo[3.1.0]hexan-2-yl)methoxy)carbonyl)amino)ethyl)boronic acid]: the IC50 in test [1] is 0.115 µM; in test [2], 0.0006 µM.
`CC(C)(C=C(C#N)C(=O)N1CCCC[C@@H]1COC(=O)N[C@@H](Cc1ccc(S(C)(=O)=O)cc1)B(O)O)N1CCC(F)(F)C1` [Example 124, ((R)-1-(((((R)-1-(2-cyano-4-(3,3-difluoropyrrolidin-1-yl)-4-methylpent-2-enoyl)piperidin-2-yl)methoxy)carbonyl)amino)-2-(4-(methylsulfonyl)phenyl)ethyl)boronic acid]: the IC50 stood at 0.55 µM in test [1] and 0.0022 µM in test [2].
Turning to `CC(C)(C=C(C#N)C(=O)N1CC(F)(F)C[C@@H]1COC(=O)N[C@@H](Cc1coc2ccccc12)B(O)O)N1CCOCC1` [Example 56, ((R)-2-(benzofuran-3-yl)-1-(((((R)-1-(2-cyano-4-methyl-4-morpholinopent-2-enoyl)-4,4-difluoropyrrolidin-2-yl)methoxy)carbonyl)amino)ethyl)boronic acid], the IC50 in test [1] is 0.148 µM; in test [2], 0.0017 µM.
As for `CN(CC(F)(F)F)C(C)(C)C=C(C#N)C(=O)N1CCCC[C@@H]1COC(=O)N[C@@H](Cc1ccccc1)B(O)O` [Example 97, ((R)-1-(((((R)-1-(2-cyano-4-methyl-4-(methyl(2,2,2-trifluoroethyl)amino)pent-2-enoyl)piperidin-2-yl)methoxy)carbonyl)amino)-2-phenylethyl)boronic acid], the values for the IC50 in test [1] and in test [2] were 3.97 µM and 0.005 µM, respectively.
As to `CC(C)(C=C(C#N)C(=O)N1C[C@@H]2C[C@@H]2[C@@H]1COC(=O)N[C@@H](Cc1ccc(F)cc1)B(O)O)N1CCC(F)(F)C1` [Example 108], the 50% inhibitory concentration (IC50) in test [1] is 0.83 µM; in test [2], 0.0009 µM.
`Cc1ccc(C[C@H](NC(=O)OC[C@H]2[C@H]3C[C@H]3CN2C(=O)C(C#N)=CC(C)(C)C)B(O)O)cc1` [Example 76]: the results for the IC50 in test [1] and in test [2] were 0.677 µM and 0.0012 µM, respectively.
In the case of `CC(C)(C=C(C#N)C(=O)N1C[C@@H]2C[C@@H]2[C@@H]1COC(=O)N[C@@H](Cc1ccc(F)cc1)B(O)O)N1CCOCC1` [Example 123, ((R)-1-(((((1S,2R,5R)-3-(2-cyano-4-methyl-4-morpholinopent-2-enoyl)-3-azabicyclo[3.1.0]hexan-2-yl)methoxy)carbonyl)amino)-2-(4-fluorophenyl)ethyl)boronic acid], the IC50 in test [1] was more than 5 µM; in test [2] it was 0.55 µM.
The like results for `Cc1ccc(C[C@H](NC(=O)OC[C@H]2CCCCCN2C(=O)C(C#N)=CC(C)(C)N2CCC(F)(F)C2)B(O)O)cc1` [Example 84, ((R)-1-(((((R)-1-(2-cyano-4-(3,3-difluoropyrrolidin-1-yl)-4-methylpent-2-enoyl)azepan-2-yl)methoxy)carbonyl)amino)-2-(p-tolyl)ethyl)boronic acid] were, in that order, 0.445 µM and 0.0029 µM.
For `C=CC(=O)N1CC(F)(F)C[C@@H]1COC(=O)N[C@@H](Cc1coc2ccccc12)B(O)O` [Example 91, ((R)-1-(((((R)-1-acryloyl-4,4-difluoropyrrolidin-2-yl)methoxy)carbonyl)amino)-2-(benzofuran-3-yl)ethyl)boronic acid], the IC50 in test [1] was determined as 0.32 µM; in test [2] it was 0.0025 µM.
Take `CC(C)(C=C(C#N)C(=O)N1CCCC[C@@H]1COC(=O)N[C@@H](CCc1ccccc1)B(O)O)N1CCC(F)(F)C1` [Example 101, ((R)-1-(((((R)-1-(2-cyano-4-(3,3-difluoropyrrolidin-1-yl)-4-methylpent-2-enoyl)piperidin-2-yl)methoxy)carbonyl)amino)-3-phenylpropyl)boronic acid]: the IC50 is more than 5 µM in test [1] and 0.0017 µM in test [2].
As to `C=C(F)C(=O)N1CCC[C@]1(C)COC(=O)N[C@@H](Cc1ccc(F)cc1)B(O)O` [Example 121, ((R)-1-(((((R)-1-(2-fluoroacryloyl)-2-methylpyrrolidin-2-yl)methoxy)carbonyl)amino)-2-(4-fluorophenyl)ethyl)boronic acid], the concentration for half-maximal inhibition (IC50) in test [1] was 1.75 µM; in test [2], 0.0019 µM.
As for `CC(C)(/C=C(/C#N)C(=O)N1CCCC[C@@H]1COC(=O)N[C@@H](Cc1ccccc1)B(O)O)N1CCC(F)(F)C1` [Example 103, ((R)-1-(((((R)-1-((Z)-2-cyano-4-(3,3-difluoropyrrolidin-1-yl)-4-methylpent-2-enoyl)piperidin-2-yl)methoxy)carbonyl)amino)-2-phenylethyl)boronic acid], the IC50 in test [1] was 2.31 µM; in test [2] it was 0.0053 µM.
With `CC(C)(C=C(C#N)C(=O)N1CCCCC[C@H]1COC(=O)N[C@@H](Cc1coc2ccccc12)B(O)O)N1CCC(F)(F)C1` [Example 68, ((R)-2-(benzofuran-3-yl)-1-(((((S)-1-(2-cyano-4-(3,3-difluoropyrrolidin-1-yl)-4-methylpent-2-enoyl)azepan-2-yl)methoxy)carbonyl)amino)ethyl)boronic acid], the half-maximal inhibitory concentration (IC50) worked out at 0.447 µM in test [1] and 0.0025 µM in test [2].

(Values after US11154563B2, “Immunoproteasome inhibitors” (Principia Biopharma Inc., priority 2017, dated 2021).)
